Measured values published in patent publication US9951039B2, “Pyrimidines for treatment of bacterial infections” (The Hong Kong Polytechnic University, priority 2016, dated 2018).
≈ marks a conversion by molar mass, not a printed value.

Key:
[1] = molecular target: T1, S. aureus FtsZ (Staphylococcus aureus, UniProt P0A031); assay: FtsZ polymerization light scattering assay; type: biochemical; conditions: 30 μm of compound; FtsZ 12.5 μM, 1 mM GTP
T1 construct: 6-histidine tag; made in house; host or cells: E. coli BL21(DE3)
T1 sequence (P0A031 1-390): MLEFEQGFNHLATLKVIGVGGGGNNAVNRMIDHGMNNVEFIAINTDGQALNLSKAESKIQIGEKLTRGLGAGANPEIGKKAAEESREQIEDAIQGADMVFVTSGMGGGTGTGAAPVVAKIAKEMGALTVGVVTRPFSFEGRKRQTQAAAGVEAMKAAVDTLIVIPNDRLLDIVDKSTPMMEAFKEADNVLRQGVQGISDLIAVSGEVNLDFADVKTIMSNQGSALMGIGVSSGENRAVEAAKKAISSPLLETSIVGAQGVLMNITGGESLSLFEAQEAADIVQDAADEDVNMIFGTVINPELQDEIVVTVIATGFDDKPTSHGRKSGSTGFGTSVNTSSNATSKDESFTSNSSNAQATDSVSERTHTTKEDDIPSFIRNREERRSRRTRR
Method: Procedure for expression and purification of S. aureus FtsZ protein: S. aureus FtsZ protein was prepared as previous reported.^16a In brief, E. coli BL21(DE3) cells, transformed with a pRSET-A-S vector carrying S. aureus FtsZ with a 6-histidine tag attached, were streaked on a nutrient agar plate containing 50 μg/mL ampicillin. After overnight incubation at 37° C., a single colony was inoculated into 5 mL of Luria-Bertani (LB) medium in the presence of 50 μg/mL ampicillin, which was then incubated at 37° C., with shaking at 250 rpm for 16 h. The overnight culture was transferred into a fresh 2×TY medium in a dilution ratio of 1:100 and 50 μg/mL ampicillin was then added, followed by incubation at 37° C. with shaking at 250 rpm. When OD600 reached 0.8, protein expression was induced with 0.4 mM isopropyl-β-D-thiogalactopyranoside (IPTG) for 4 h. […]
Procedure: The polymerization of recombinant S. aureus FtsZ was measured using a 90° light scattering in a thermostatically (37° C.) controlled Fluorescence Spectrometer LS 50B according to previous reports.^16a,19 Both excitation and emission wavelengths were fixed to 600 nm with a slit width of 2.5 nm. […] After 8 min, the final concentration of 1 mM GTP was added at the last fraction and the increase in light scattering measured for an additional 2000 seconds. The rate and extent of polymerization were measured. […]

[2] = test system: USA300 #2690 (community-associated MRSA); assay: MIC against clinically isolated strain 9; type: cell-based, S. aureus; conditions: Staphylococcus aureus
Method: Procedure of Antimicrobial susceptibility test: The MIC value of compounds was measured in the antimicrobial susceptibility test using the broth microdilution procedure in accordance with the CLSI guidelines.^21 Cation-adjusted Mueller Hinton broth (CA-MHB) was used for all the S. aureus strains in the assay. Cells in exponential phase of growth were diluted to approximately 5×10^5 cfu/mL. Stock solutions of each compound were freshly dissolved in dimethyl sulfoxide (DMSO). Then, serial dilutions of each compound in CA-MHB medium were added into 96-well microplate. The final percentage of DMSO in the assay was 1%. Control experiments were performed with 1% DMSO instead of the compound solution. After being incubated at 37° C. for 18 h, OD600 value of cells was measured on a microplate reader and the percentage of bacterial cell inhibition with respect to controls was calculated. The MIC value was defined as the lowest compound concentration at which the growth of bacteria was inhibited by ≥90%. Three independent assays were performed for each compound.
Results: Three compounds, namely 14av_amine16, 14dv_amine16 and 14dv_amine06, were selected to be tested against nine in-house clinically isolated bacterial strains including S. aureus ATCC29247, which is an ampicillin resistant strain, S. aureus ATCC BAA-41, ATCC BAA-1717, ATCC BAA-1720, ATCC 43300 which are methicillin resistant strains and four USA300 strains, (#417, #757, #1799 and #2690), which are the predominant strain type of community-associated MRSA strains in the United States.

With `CCC(CC)c1cc(CCN2CCCN(Cc3ccc(C(F)(F)F)cc3)CC2)nc(-c2ccncc2)n1` [Compound 14av_amine16, 1-(2-(6-(pentan-3-yl)-2-(pyridin-4-yl)pyrimidin-4-yl)ethyl)-4-(4-(trifluoromethyl)benzyl)-1,4-diazepane] as the molecule, how does the “inhibition of FtsZ polymerization” value [1] read?
The value was “Complete inhibition”.

And the MIC [2]?
Its MIC is 12 µM (≈ 6.14 µg/mL).
